Reference: patent US12371454B2, “Cyclic peptide compound having Kras inhibitory action” (priority 2019, dated 2025)
Starred links: 1 amine or outer side, 2 acyl side, 3 side chain; linkers in the order of their positions; H or OH if unused. Positions of bridges follow the written chain, without caps; N, C: chain ends. Non-standard residues stand in square brackets, D forms with d. Residues, ends and D or L forms follow the SMILES beside them. *: point of attachment. hPhe(3-Cl-4-CF3) = N[C@@H](CCc1ccc(C(F)(F)F)c(Cl)c1)C(=O)O; NMeDab(N,N-(CH2CF2CH2)) = CN[C@@H](CCN1CC(F)(F)C1)C(=O)O; hPhe(3-F,4-CF3) = N[C@@H](CCc1ccc(C(F)(F)F)c(F)c1)C(=O)O; X23 = CN([C@@H](Cc1ccccc1OC(F)(F)F)C(=O)[*:2])[*:1]; NMePhe(4-Cl) = CN[C@@H](Cc1ccc(Cl)cc1)C(=O)O; NMePhe(3-F) = CN[C@@H](Cc1cccc(F)c1)C(=O)O; hPhe(4-Cl) = N[C@@H](CCc1ccc(Cl)cc1)C(=O)O; NMedβ3hAla = C[C@H](CC(=O)[*:2])N(C)[*:1]; Abu(4,4,4-F3) = N[C@@H](CC(F)(F)F)C(=O)O; NMeGly(cPent) = CN[C@H](C(=O)O)C1CCCC1; Phe(3-I) = N[C@@H](Cc1cccc(I)c1)C(=O)O; Pro(4,4-F2) = O=C(O)[C@@H]1CC(F)(F)CN1; NMeCha = CN[C@@H](CC1CCCCC1)C(=O)O; N(CH2CH2)2CF2 = FC1(F)CCN(*)CC1; Gly(cPr) = N[C@H](C(=O)O)C1CC1; NMeD = CN[C@@H](CC(=O)O)C(=O)O; NMeL = CN[C@@H](CC(C)C)C(=O)O; NPrAla = CCCN[C@@H](C)C(=O)O; NMeV = CN[C@H](C(=O)O)C(C)C; d(β3hA) = C[C@@H](N)CC(=O)O; Morpholide = C1CN(*)CCO1; NMeA = CN[C@@H](C)C(=O)O; NMeAib = CNC(C)(C)C(=O)O; Nle = CCCC[C@H](N)C(=O)O; Piperidide = C1CCN(*)CC1; Pyrrolidide = C1CCN(*)C1; dNMeA = CN[C@H](C)C(=O)O; Ac5c = NC1(C(=O)O)CCCC1; Aze = O=C(O)[C@@H]1CCN1; NBuGly = CCCCNCC(=O)O; NPrGly = CCCNCC(=O)O; Sar = CNCC(=O)O

molecular target: T1, Kras and SOS1 (biotin-tagged human Kras loaded with GDP, His-tagged human SOS1) (Homo sapiens, UniProt P01116, G12D); assay: Protein-protein interaction inhibition between Kras and SOS1 (KrasGl2D-SOS PPI) using AlphaScreen; type: binding; conditions: AlphaScreen; biotin-tagged human Kras loaded with GDP, His-tagged human SOS1; read-out: KRAS G12D-SOS PPI IC50
T1 construct: made in house; host or cells: E. coli (stated for Kras only)
T1 sequence (P01116 1-188 isoform P01116-2 G12D): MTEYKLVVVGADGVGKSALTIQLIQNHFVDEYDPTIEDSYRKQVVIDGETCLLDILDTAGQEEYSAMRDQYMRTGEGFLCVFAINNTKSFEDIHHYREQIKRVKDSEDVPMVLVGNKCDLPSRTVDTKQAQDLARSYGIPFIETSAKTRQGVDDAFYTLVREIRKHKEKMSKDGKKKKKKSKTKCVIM
Experimental: Protein-Protein Interaction Inhibition Between Kras and SOS1 (KrasGl2D-SOS PPI) Using AlphaScreen
Protein-protein interaction inhibition (PPI) between Kras and SOS1 was measured by energy transfer from nickel-conjugated donor beads to streptavidin-conjugated acceptor beads using biotin-tagged human Kras expressed in E. coli and loaded with GDP after purification and His-tagged human SOS1 enzyme. This measurement utilizes the phenomenon in which donor beads are irradiated with light at 680 nm, such that energy is transferred to acceptor beads through singlet oxygen and light at 520-620 nm is detected from the acceptor beads.
Inhibition of binding between K-ras and SOS1 is known to inhibit signaling downstream of Kras.

Compound	IC50 [nM]
CC[C@H](C)[C@@H]1NC(=O)[C@H](CC(C)C)N(C)C(=O)C[C@@H](C(=O)N(C)C)N(C)C(=O)[C@H](C2CCCC2)N(C)C(=O)C2(CCCC2)NC(=O)[C@H](Cc2cccc(F)c2)N(C)C(=O)[C@H](CCc2ccc(C(F)(F)F)c(Cl)c2)NC(=O)CN(C)C(=O)[C@H](CC2CCCCC2)N(C)C(=O)[C@@H]2CCN2C(=O)[C@H](C)N(C)C1=O [Compound 95] ([NMeL]I[NMeA][Aze][NMeCha][Sar][hPhe(3-Cl-4-CF3)][NMePhe(3-F)][Ac5c][NMeGly(cPent)][NMeD]-NMe2; lactam N-11)	11
CC[C@H](C)[C@@H]1NC(=O)[C@H](CC(C)C)N(C)C(=O)C[C@@H](C(=O)N2CCCC2)NC(=O)[C@H](CC(C)C)NC(=O)C(C)(C)N(C)C(=O)[C@H](CC(C)C)NC(=O)[C@H](CCc2ccc(C(F)(F)F)c(F)c2)NC(=O)CN(C)C(=O)[C@H](Cc2ccc(Cl)cc2)N(C)C(=O)CN(C)C(=O)CN(C)C1=O [Compound 96] ([NMeL]I[Sar][Sar][NMePhe(4-Cl)][Sar][hPhe(3-F,4-CF3)]L[NMeAib]LD-Pyrrolidide; lactam N-11)	220
CC[C@H](C)[C@@H]1NC(=O)[C@H](C)N(C)C(=O)C[C@@H](C)NC(=O)[C@H](C2CCCC2)N(C)C(=O)C2(CCCC2)NC(=O)[C@@H]2CCCN2C(=O)[C@H](CCc2ccc(C(F)(F)F)c(Cl)c2)NC(=O)[C@@H](C)N(C)C(=O)[C@H](CC(C)C)N(C)C(=O)[C@@H]2CCN2C(=O)[C@H](C)N(C)C1=O [Compound 98] (cyclo([Ac5c][NMeGly(cPent)][d(β3hA)][NMeA]I[NMeA][Aze][NMeL][dNMeA][hPhe(3-Cl-4-CF3)]P))	68
CC(C)C[C@H]1C(=O)N[C@@H](C2CC2)C(=O)N(C)CC(=O)N(C)CC(=O)N(C)[C@@H](CC2CCCCC2)C(=O)N(C)CC(=O)N[C@@H](CCc2ccc(C(F)(F)F)c(Cl)c2)C(=O)N2CCC[C@H]2C(=O)NC2(CCCC2)C(=O)N(C)[C@@H](C(C)C)C(=O)N[C@H](C)CC(=O)N1C [Compound 101] (cyclo([Ac5c][NMeV][d(β3hA)][NMeL][Gly(cPr)][Sar][Sar][NMeCha][Sar][hPhe(3-Cl-4-CF3)]P))	160
CC[C@H](C)[C@@H]1NC(=O)[C@H](CC(C)C)N(C)C(=O)C[C@@H](C(=O)N(C)C)N(C)C(=O)[C@H](C2CCCC2)N(C)C(=O)[C@H](C(C)C)NC(=O)[C@H](C)N(C)C(=O)[C@H](CCc2ccc(C(F)(F)F)c(Cl)c2)NC(=O)CN(C)C(=O)[C@H](CC2CCCCC2)N(C)C(=O)[C@@H]2CCN2C(=O)[C@H](C)N(C)C1=O [Compound 102] ([NMeL]I[NMeA][Aze][NMeCha][Sar][hPhe(3-Cl-4-CF3)][NMeA]V[NMeGly(cPent)][NMeD]-NMe2; lactam N-11)	11
CC[C@H](C)[C@@H]1NC(=O)[C@H](CC(C)C)N(C)C(=O)C[C@@H](C(=O)N(C)C)N(C)C(=O)[C@H](C2CCCC2)N(C)C(=O)[C@H](CC(F)(F)F)NC(=O)[C@H](CCN2CC(F)(F)C2)N(C)C(=O)[C@H](CCc2ccc(C(F)(F)F)c(Cl)c2)NC(=O)CN(C)C(=O)[C@H](CC2CCCCC2)N(C)C(=O)[C@@H]2CCN2C(=O)[C@H](C)N(C)C1=O [Compound 104] ([NMeL]I[NMeA][Aze][NMeCha][Sar][hPhe(3-Cl-4-CF3)][NMeDab(N,N-(CH2CF2CH2))][Abu(4,4,4-F3)][NMeGly(cPent)][NMeD]-NMe2; lactam N-11)	28
CC[C@H](C)[C@@H]1NC(=O)[C@H](CC(C)C)N(C)C(=O)C[C@@H](C(=O)N2CCOCC2)N(C)C(=O)[C@H](C2CCCC2)N(C)C(=O)C2(CCCC2)NC(=O)[C@H](CC(=O)N2CCC(F)(F)CC2)N(C)C(=O)[C@H](CCc2ccc(C(F)(F)F)c(Cl)c2)NC(=O)CN(C)C(=O)[C@H](CC2CCCCC2)N(C)C(=O)[C@@H]2CCN2C(=O)[C@H](C)N(C)C1=O [Compound 105] ([NMeL]I[NMeA][Aze][NMeCha][Sar][hPhe(3-Cl-4-CF3)][NMeD](N(CH2CH2)2CF2)[Ac5c][NMeGly(cPent)][NMeD]-Morpholide; lactam N-11)	5.3
CC[C@H](C)[C@@H]1NC(=O)[C@H](CC(C)C)N(C)C(=O)C[C@@H](C)N(C)C(=O)[C@H](C2CCCC2)N(C)C(=O)C2(CCCC2)NC(=O)[C@@H]2CC(F)(F)CN2C(=O)[C@H](CCc2ccc(C(F)(F)F)c(Cl)c2)NC(=O)CN(C)C(=O)[C@H](CC2CCCCC2)N(C)C(=O)CN(C)C(=O)CN(C)C1=O [Compound 107] (cyclo([Ac5c][NMeGly(cPent)][NMedβ3hAla][NMeL]I[Sar][Sar][NMeCha][Sar][hPhe(3-Cl-4-CF3)][Pro(4,4-F2)]))	4
CC[C@H](C)[C@@H]1NC(=O)[C@H](C)N(C)C(=O)C[C@@H](C)NC(=O)[C@H](C2CCCC2)N(C)C(=O)C2(CCCC2)NC(=O)[C@@H]2CCCN2C(=O)[C@H](CCc2ccc(C(F)(F)F)c(Cl)c2)NC(=O)[C@@H](C)N(C)C(=O)[C@H](C(C)C)N(C)C(=O)CN(C)C(=O)CN(C)C1=O [Compound 109] (cyclo([Ac5c][NMeGly(cPent)][d(β3hA)][NMeA]I[Sar][Sar][NMeV][dNMeA][hPhe(3-Cl-4-CF3)]P))	40
CCCC[C@@H]1NC(=O)[C@H](Cc2cccc(I)c2)NC(=O)CN(C)C(=O)[C@H](Cc2ccc(Cl)cc2)N(C)C(=O)CN(C)C(=O)CN(C)C(=O)[C@H]([C@@H](C)CC)NC(=O)[C@H](CC(C)C)N(C)C(=O)C[C@@H](C(=O)N2CCCCC2)N(C)C(=O)[C@H](CC(C)C)NC(=O)[C@H](Cc2ccccc2OC(F)(F)F)N(C)C1=O [Compound 111] ([NMeL]I[Sar][Sar][NMePhe(4-Cl)][Sar][Phe(3-I)][Nle][X23]L[NMeD]-Piperidide; lactam N-11)	100
CC[C@H](C)[C@@H]1NC(=O)[C@H](CC(C)C)N(C)C(=O)C[C@@H](C(=O)N2CCCCC2)N(C)C(=O)[C@H](C(C)C)N(C)C(=O)C2(CCCC2)NC(=O)[C@@H]2CCCN2C(=O)[C@H](CCc2ccc(Cl)cc2)NC(=O)CN(C)C(=O)[C@H](CC2CCCCC2)N(C)C(=O)CN(C)C(=O)[C@@H]2CCN2C1=O [Compound 112] ([NMeL]I[Aze][Sar][NMeCha][Sar][hPhe(4-Cl)]P[Ac5c][NMeV][NMeD]-Piperidide; lactam N-11)	73
CCCN1C(=O)C[C@@H](C)NC(=O)[C@H](C(C)C)N(C)C(=O)C2(CCCC2)NC(=O)[C@@H]2CCCN2C(=O)[C@H](CCc2ccc(C(F)(F)F)c(Cl)c2)NC(=O)CN(C)C(=O)[C@H](CC2CCCCC2)N(C)C(=O)CN(C)C(=O)CN(C)C(=O)[C@H]([C@@H](C)CC)NC(=O)[C@@H]1C [Compound 114] (cyclo([Ac5c][NMeV][d(β3hA)][NPrAla]I[Sar][Sar][NMeCha][Sar][hPhe(3-Cl-4-CF3)]P))	20
CCCN1CC(=O)N(C)CC(=O)N(C)[C@@H](CC2CCCCC2)C(=O)N(C)CC(=O)N[C@@H](CCc2ccc(C(F)(F)F)c(Cl)c2)C(=O)N2CCC[C@H]2C(=O)NC2(CCCC2)C(=O)N(C)[C@@H](C(C)C)C(=O)N[C@H](C)CC(=O)N(C)[C@@H](CC(C)C)C(=O)N[C@@H]([C@@H](C)CC)C1=O [Compound 116] (cyclo([Ac5c][NMeV][d(β3hA)][NMeL]I[NPrGly][Sar][NMeCha][Sar][hPhe(3-Cl-4-CF3)]P))	140
CCCCN1CC(=O)N(C)CC(=O)N(C)[C@@H](CC2CCCCC2)C(=O)N(C)CC(=O)N[C@@H](CCc2ccc(C(F)(F)F)c(Cl)c2)C(=O)N2CCC[C@H]2C(=O)NC2(CCCC2)C(=O)N(C)[C@@H](C(C)C)C(=O)N[C@H](C)CC(=O)N(C)[C@@H](CC(C)C)C(=O)N[C@@H]([C@@H](C)CC)C1=O [Compound 123] (cyclo([Ac5c][NMeV][d(β3hA)][NMeL]I[NBuGly][Sar][NMeCha][Sar][hPhe(3-Cl-4-CF3)]P))	170
